Results from patent publication US9724354B2, “Combination of catalytic mTORC1/2 inhibitors and selective inhibitors of Aurora A kinase” (Millennium Pharmaceuticals, Inc., priority 2013, dated 2017).

Assays:
[1] = test system: SUM-149PT breast xenograft; assay: In vivo tumor efficacy, SUM-149PT breast xenograft model; design: species or system Balb/c Nude mice; conditions: PO
Description: SUM-149PT (5×10^6) is a tumor cell line grown in Ham's F12 (BD Biosciences) media with 5% FBS, supplemented with 5 μg/ml insulin and 1 μg/ml hydrocortisone media mixed with an equal volume of Matrigel (BD Biosciences). Cell suspension at passage 84 was aseptically injected into the subcutaneous space in the right dorsal flank of Balb/c Nude mice (age 8 weeks, Shanghai SINO-British SIPPR/BK Lab Animal Ltd.) using a 25-gauge needle.
(§1) MLN8237 was formulated in 10% HPbCD+1% NaHCO3 and administered by oral injection (1 cc syringe, 20-22 gauge, oral gavages needle) on QD schedule at 3 mg/kg and 20 mg/kg for 21 days. MLN8237 as used in the experimental section refers to sodium 4-{[9-chloro-7-(2-fluoro-6-methoxyphenyl)-5H-pyrimido[5,4-d][2]benzazepin-2-yl]amino}-2-methoxybenzoate monohydrate and the amount referenced is the amount of alisertib dosed. MLN8237 is dosed 24 hours prior to MLN0128 in all three models.
(§2) MLN0128 is formulated in 100% PEG400 and administered by oral injection (1 cc syringe, 20-22 gauge, oral gavages needle) on QD schedule at 0.3 mg/kg for 21 days. 1 mg/kg QD×3/weeks for 3 weeks. MLN0128 is dosed 24 hours after MLN8237 dosing.
(§3) Tumors are measured twice weekly using a vernier caliper. Tumor volumes are calculated using standard procedures (0.5×(length×width^2)). When the tumors reached a volume of approximately 200 mm^3 (PHTX-14B, PHTX-147B) or 167 mm^3 (SUM-149PT), mice are randomized into groups of 8 as described in the tables below, and dosed with vehicle, MLN8237 or MLN0128 or the combination of MLN8237 with MLN0128, at various doses as described below in Tables 8a-10a. Tumor size and body weight are measured approximately twice a week for the duration of the study. Mice are euthanized when their tumor volume reached 10% of their body weight, or when the average tumor volume of a treatment or control group reached approximately 2000 mm^3. Tumor growth continued to be monitored after the dosing period in some studies. Average tumor volume is reported as a function of time for selected groups of selected studies in FIGS. 3, 4 and 5.
(§4) Measurements from day 0 to 21 are analyzed as specified in Tables 8a-10a. All tumor volumes have a value of 1 added to them before log10 transformation. For each animal, the log tumor volume at day 0 is subtracted from the log tumor volume on the subsequent days. This difference vs. time is used to calculate an area under the curve (AUC) for each animal using the trapezoid rule. In instances when an animal in a treatment group is removed early from the study, the last observed tumor value is carried forward through all subsequent time points. The synergy score for the combination of agents A and B is defined as: 100*(mean(AUCAB)−mean(AUCA)−mean(AUCB)+mean(AUCctl))/mean(AUCctl): where AUCAB, AUCA, AUCB, and AUCctl are the AUC values for animals in the combination group, the A group, the B group, and the control group, respectively. The standard error of the synergy score is computed based on the variation in the AUC values among the animals. […] If the P-value is above 0.05, then the combination is considered to be additive. If the P-value is below 0.05, and the synergy score is less than zero, then the combination is considered to be synergistic. […] Otherwise, the combination is classified as antagonistic.

[2] = test system: PHTX-14B breast xenograft; assay: In vivo tumor efficacy, PHTX-14B breast xenograft model; design: species or system female Balb/c nude mice; conditions: for Average tumor volume at day 21: PO
Description: The PHTX-14B breast xenograft model was established from a patient-derived tumor collected during surgery from a person with ductal carcinoma classified as triple negative breast cancer (ER−/PR−/Her2−) by IHC. PHTX-14B tumor fragments (approximately 2×2×3 mm^3) at passage 7 are implanted into the subcutaneous space in the right dorsal flank of female Balb/c nude mice (age 4-6 weeks, Shanghai SINO-British SIPPR/BK Lab Animal Ltd) using a 13-gauge trocar tumor implantation needle.
as §1, §2, §3, §4

[3] = test system: PHTX-147B breast xenograft; assay: In vivo tumor efficacy, PHTX-147B breast xenograft model; design: species or system female Balb/c nude mice; conditions: PO
Description: The PHTX-147B breast xenograft model was established from a patient-derived tumor collected during surgery from a person with ductal carcinoma classified as triple negative breast cancer (ER−/PR−/Her2−) by IHC. PHTX-147B tumor fragments (approximately 2×2×3 mm^3) at passage 7 are implanted into the subcutaneous space in the right dorsal flank of female Balb/c nude mice (age 4-6 weeks, Shanghai SINO-British SIPPR/BK Lab Animal Ltd.).
as §1, §2, §3, §4

[4] = MLN0128 alone at 0.3 mg/kg, QD×21
[5] = MLN8237 alone at 3 mg/kg, QD×21
[6] = MLN8237 alone at 20 mg/kg, QD×21

CC(C)n1nc(-c2ccc3oc(N)nc3c2)c2c(N)ncnc21 [MLN0128, 3-(2-amino-1,3-benzoxazol-5-yl)-1-(propan-2-yl)-1H-pyrazolo [3,4-d] pyrimidin-4-amine]
Average tumor volume at day 21 ([1]; 0.3 mg/kg MLN0128, QD): 524.5 mm^3 | Average tumor volume at day 21 ([1]; 1 mg/kg MLN0128, QD × 3/week): 696.8 mm^3 | effect on growth of SUM149PT xenografts [1, 4]: significantly delayed the growth | effect on growth of SUM149PT xenografts ([1]; MLN0128 alone at 1.0 mg/kg, QD×3/wk×3 weeks): only responded lightly | Average tumor volume at day 21 ([2]; 0.3 mg/kg MLN0128, QD): 539.1 mm^3 | Average tumor volume at day 21 ([2]; 1 mg/kg MLN0128, QD × 3/week): 475.6 mm^3 | effect on growth of PHTX-14B xenografts ([2]; MLN0128 at 0.3 mg/kg alone, QD×21): significantly delayed growth | effect on growth of PHTX-14B xenografts ([2]; MLN0128 at 1.0 mg/kg alone): significantly delayed growth | Average tumor volume at day 21 ([3]; 0.3 mg/kg MLN0128, QD): 1354.1 mm^3 | Average tumor volume at day 21 ([3]; 1 mg/kg MLN0128, QD × 3/week): 974.8 mm^3 | effect on growth of PHTX-147B xenografts [3, 4]: responded moderately | effect on growth of PHTX-147B xenografts ([3]; MLN0128 alone at 1.0 mg/kg, QD×3/wk×3): significantly delayed the growth

COc1cc(Nc2ncc3c(n2)-c2ccc(Cl)cc2C(c2c(F)cccc2OC)=NC3)ccc1C(=O)[O-].O.[Na+] [MLN8237, sodium 4-{[9-chloro-7-(2-fluoro-6-methoxyphenyl)-5H-pyrimido[5,4-d][2]benzazepin-2-yl]amino}-2-methoxybenzoate monohydrate]
Average tumor volume at day 21 ([1]; 3 mg/kg MLN8237, QD): 613.4 mm^3 | Average tumor volume at day 21 ([1]; 20 mg/kg MLN8237, QD): 451.6 mm^3 | effect on growth of SUM149PT xenografts [1, 5]: significantly delayed the growth | effect on growth of SUM149PT xenografts [1, 6]: significantly delayed the growth | Average tumor volume at day 21 ([2]; 3 mg/kg MLN8237, QD): 795.1 mm^3 | Average tumor volume at day 21 ([2]; 20 mg/kg MLN8237, QD): 533.9 mm^3 | antitumor activity in PHTX-14B xenografts ([2]; MLN8237 at 3 mg/kg alone, QD×21): limited and not significant | effect on growth of PHTX-14B xenografts ([2]; MLN8237 at 20 mg/kg alone, QD×21): significantly delayed growth | Average tumor volume at day 21 ([3]; 3 mg/kg MLN8237, QD): 1951.9 mm^3 | Average tumor volume at day 21 ([3]; 20 mg/kg MLN8237, QD): 1694.9 mm^3 | effect on PHTX-147B xenograft growth [3, 5]: only slight or no effect | effect on PHTX-147B xenograft growth [3, 6]: only slight or no effect
